Source: patent publication US12435091B2, “RNA-binding protein multimerization inhibitors and methods of use thereof” (THE UAB RESEARCH FOUNDATION, priority 2020, dated 2025)

Experiments:
Assay in all cases: Illumina global RNA-sequencing of PDGx neurospheres
Type in all cases: cell-based
Details in all cases: 3 uM, 12 hours, compared to control
[1] = system: JX12p neurospheres, HuR mRNA targets
Method: (§1) Illumina global RNA-sequencing data were generated by utilizing PDGx neurospheres, which have been treated with a compound as described herein (e.g., SRI-42127, 3 uM) for 12 hours or with vehicle as the control. RNA was isolated by using TRIzol reagent (Invitrogen; Carlsbad, CA). The RNA samples were processed.
(§2) RNA sequencing was performed on PDGx-derived glioma neurospheres representing the different molecular subtypes (classical, neuronal, and mesenchymal) after treatment with vehicle (control) or SRI-42127 (3 uM) for 12 hours. Analysis of direct HuR mRNA targets and their corresponding cell signaling pathways was performed. Table 9 illustrates the evaluated gene sets, representing direct HuR mRNA targets, and their corresponding cell signaling pathways.
(§3) The analysis of direct HuR mRNA targets and their corresponding cell signaling pathways has been performed by using gene sets, which have been defined as the direct HuR targets following tumor neurosphere treatment with DHTS, an established modulator of HuR/mRNA interaction (Lal et al., Nucleic Acid Research, 2017). […] Data are represented as average+standard deviation (Aver+SD). The significance was evaluated by using Student t-test.
(§4) The analysis was generated based on RNA-Seq data.

[2] = system: X14P neurospheres, HuR mRNA targets
Method: as §1, §2, §3, §4

[3] = system: XD456 neurospheres, HuR mRNA targets
Method: as §1, §2, §3, §4

## CN(c1ccc2ncc(-c3ccc4cn[nH]c4c3)n2n1)C1CCOCC1 [Compound 19]
[1]
  gene set average value, Activation of BH3-only proteins Homo sapiens_R-HSA-114452: 0.90
  gene set average value, Cell Cycle Check points_Homo Sapiens_R-HSA-69620: 0.58
  gene set average value, Cell Cycle, Mitotic_Homo Sapiens_R-HSA-69278: 0.58
  gene set average value, Cell Cycle_Homo sapiens_R-HSA-1640170: 0.57
  gene set average value, Cell cycle_Homo Sapiens_hsa04110: 0.64
  gene set average value, Cellular Senescence_Homo sapiens_R-HSA-2559583: 0.74
  gene set average value, Cellular responses to Stress_Homo sapiens_R-HSA-2262752: 0.61
  gene set average value, Deadenylation-dependent mRNA decay_Homo sapiens_R-HSA-429914: 0.71
  gene set average value, Developmental Biology_Homo sapiens_R-HSA-1266738: 0.52
  gene set average value, Epstein-Barr virus Infection_Homo Sapiens_hsa05169: 0.63
  gene set average value, G2/M Check points_Homo sapiens_R-HSA-69481: 0.60
  gene set average value, G2/M DNA damage Checkpoint_Homo sapiens_R-HSA-69473: 0.61
  gene set average value, Gene Expression_Homo Sapiens_R-HSA-2559583: 0.78
  gene set average value, HTLV-1 infection_Homo Sapiens_hsa05186: 0.67
  gene set average value, Intrinsic Pathway for Apoptosis_Homo sapiens_R-HSA-109606: 0.90
  gene set average value, MAPK signaling Pathway_Homo Sapiens_hsa04010: 0.63
  gene set average value, Membrane Trafficking_Homo sapiens_R-HAS-199991: 0.62
  gene set average value, Mitotic G1-G1/S phases_Homo sapiens_R-HSA-453279: 0.58
  gene set average value, P53 signaling pathway_Homo Sapiens_hsa04115: 1.21
  gene set average value, RHO GTPases Activate Formins_Homo sapiens_R-HSA-5663220: 0.48
  gene set average value, RHO GTPases Effectors_Homo sapiens_R-HSA-195258: 0.50
  gene set average value, RNA degradation_Homo Sapiens_hsa03018: 0.78
  gene set average value, Regulation of TP53 Activity through Phosphorylation_Homo sapiens_R-HSA-6804756: 0.63
  gene set average value, Regulation of TP53 Activity_Homo sapiens_R-HSA-109606: 0.89
  gene set average value, Signaling by Rho GTPases_Homo sapiens_R-HSA-194315: 0.49
  gene set average value, TP53 Regulates Metabolic Genes_Homo sapiens_R-HSA-5628897: 0.87
  gene set average value, Transcriptional Regulation by TP53_Homo sapiens_R-HSA-3700989: 0.93
  gene set average value, Translocation of GLUT4 to the plasma membrane_Homo sapiens_R-HSA-1445148: 0.71
[2]
  gene set average value, Activation of BH3-only proteins Homo sapiens_R-HSA-114452: 1.03
  gene set average value, Cell Cycle Check points_Homo Sapiens_R-HSA-69620: 0.77
  gene set average value, Cell Cycle, Mitotic_Homo Sapiens_R-HSA-69278: 0.80
  gene set average value, Cell Cycle_Homo sapiens_R-HSA-1640170: 0.74
  gene set average value, Cell cycle_Homo Sapiens_hsa04110: 0.99
  gene set average value, Cellular Senescence_Homo sapiens_R-HSA-2559583: 0.99
  gene set average value, Cellular responses to Stress_Homo sapiens_R-HSA-2262752: 0.74
  gene set average value, Deadenylation-dependent mRNA decay_Homo sapiens_R-HSA-429914: 1.03
  gene set average value, Developmental Biology_Homo sapiens_R-HSA-1266738: 0.65
  gene set average value, Epstein-Barr virus Infection_Homo Sapiens_hsa05169: 1.0
  gene set average value, G2/M Check points_Homo sapiens_R-HSA-69481: 0.82
  gene set average value, G2/M DNA damage Checkpoint_Homo sapiens_R-HSA-69473: 0.82
  gene set average value, Gene Expression_Homo Sapiens_R-HSA-2559583: 0.95
  gene set average value, HTLV-1 infection_Homo Sapiens_hsa05186: 0.89
  gene set average value, Intrinsic Pathway for Apoptosis_Homo sapiens_R-HSA-109606: 1.03
  gene set average value, MAPK signaling Pathway_Homo Sapiens_hsa04010: 1.0
  gene set average value, Membrane Trafficking_Homo sapiens_R-HAS-199991: 0.86
  gene set average value, Mitotic G1-G1/S phases_Homo sapiens_R-HSA-453279: 1.00
  gene set average value, P53 signaling pathway_Homo Sapiens_hsa04115: 1.9
  gene set average value, RHO GTPases Activate Formins_Homo sapiens_R-HSA-5663220: 0.62
  gene set average value, RHO GTPases Effectors_Homo sapiens_R-HSA-195258: 0.70
  gene set average value, RNA degradation_Homo Sapiens_hsa03018: 1.97
  gene set average value, Regulation of TP53 Activity through Phosphorylation_Homo sapiens_R-HSA-6804756: 0.58
  gene set average value, Regulation of TP53 Activity_Homo sapiens_R-HSA-109606: 0.94
  gene set average value, Signaling by Rho GTPases_Homo sapiens_R-HSA-194315: 0.65
  gene set average value, TP53 Regulates Metabolic Genes_Homo sapiens_R-HSA-5628897: 1.03
  gene set average value, Transcriptional Regulation by TP53_Homo sapiens_R-HSA-3700989: 1.04
  gene set average value, Translocation of GLUT4 to the plasma membrane_Homo sapiens_R-HSA-1445148: 0.92
[3]
  gene set average value, Activation of BH3-only proteins Homo sapiens_R-HSA-114452: 0.94
  gene set average value, Cell Cycle Check points_Homo Sapiens_R-HSA-69620: 0.48
  gene set average value, Cell Cycle, Mitotic_Homo Sapiens_R-HSA-69278: 0.54
  gene set average value, Cell Cycle_Homo sapiens_R-HSA-1640170: 0.52
  gene set average value, Cell cycle_Homo Sapiens_hsa04110: 0.60
  gene set average value, Cellular Senescence_Homo sapiens_R-HSA-2559583: 0.64
  gene set average value, Cellular responses to Stress_Homo sapiens_R-HSA-2262752: 0.53
  gene set average value, Deadenylation-dependent mRNA decay_Homo sapiens_R-HSA-429914: 0.58
  gene set average value, Developmental Biology_Homo sapiens_R-HSA-1266738: 0.49
  gene set average value, Epstein-Barr virus Infection_Homo Sapiens_hsa05169: 0.49
  gene set average value, G2/M Check points_Homo sapiens_R-HSA-69481: 0.47
  gene set average value, G2/M DNA damage Checkpoint_Homo sapiens_R-HSA-69473: 0.50
  gene set average value, Gene Expression_Homo Sapiens_R-HSA-2559583: 0.63
  gene set average value, HTLV-1 infection_Homo Sapiens_hsa05186: 0.61
